Results from patent US20230295234A1, “ANTIMICROBIAL PEPTIDOMIMETICS” (SPEXIS AG, priority 2020, published 2023).
Peptide text beside a SMILES is read from it.

Experiments:
[1] = tested on: Escherichia coli ATCC 25922; conditions: ATCC 25922
How it was run: (§1)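 Broth microdilution; cation-adjusted MHII; inoculum ~5×10^5 CFU/mL from 0.5 McFarland saline suspension; peptide two-fold serial dilutions; polysorbate 80 0.002% final; peptide stock 1 mg/mL in water.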

[2] = tested on: Escherichia coli MCR-1 Af 45; conditions: Mueller-Hinton broth II, 18-20 hours at 35° C.
How it was run: as §1

[3] = tested on: Klebsiella pneumoniae SSI3010; conditions: SSI3010
How it was run: as §1

[4] = tested on: human red blood cells (hRBC); assay: Hemolysis of human red blood cells; format: cell-based; conditions: red cells of human, 1 h
How it was run: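 PBS-washed human red blood cells (20% v/v) were incubated with peptide at 200 μg/mL for 1 h at 37 °C with shaking. Supernatant OD was read at 540 nm after 8-fold dilution. Hemolysis is expressed as percent of the water control.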

SMILES	Escherichia coli ATCC 25922 MIC [1] [µg/mL]	Escherichia coli MCR-1 Af 45 MIC [2] [µg/mL]	Klebsiella pneumoniae SSI3010 MIC [3] [µg/mL]	Hemolysis at 0.2 g/L [4] [%]
CC[C@H](C)[C@H](NC(=O)[C@@H]1C[C@@H](O)CN1C(=O)[C@@H](N)C(C)C)C(=O)N[C@@H](Cc1ccc(O)cc1)C(=O)N[C@@H](Cc1ccc(O)cc1)C(=O)N[C@@H]1C(=O)N[C@@H](CC(N)=O)C(=O)N[C@@H](CCCNC(=N)N)C(=O)N[C@@H](CCN)C(=O)N[C@@H]([C@@H](C)O)C(=O)N[C@H](CCN)C(=O)N[C@@H](CCCCN)C(=O)N[C@H](C(=O)N[C@@H](CCN)C(=O)N[C@@H](CCCNC(=N)N)C(=O)N[C@@H](Cc2ccc(O)cc2)C(=O)O)CSSC1(C)C [Example 155] (HELM PEPTIDE1{V.[Hyp].I.Y.Y.[Pen].N.R.[Dab].T.[NCC[C@@H](N[*:1])C(=O)[*:2]].K.C.[Dab].R.Y}$PEPTIDE1,PEPTIDE1,6:R3-13:R3$$$V2.0)	0.125	0.0625	0.25	0
CC[C@H](C)[C@H](NC(=O)[C@@H]1C[C@@H](O)CN1C(=O)[C@@H](N)C(C)C)C(=O)N[C@@H](CC(C)C)C(=O)N[C@@H](Cc1ccc(O)cc1)C(=O)N[C@@H]1C(=O)N[C@@H](CC(N)=O)C(=O)N[C@@H](CCCNC(=N)N)C(=O)N[C@@H](CCN)C(=O)N[C@@H]([C@@H](C)O)C(=O)N[C@H](CCN)C(=O)N[C@@H](CCCCN)C(=O)N[C@H](C(=O)N[C@@H](CCN)C(=O)N[C@@H](CCCNC(=N)N)C(=O)N[C@@H](Cc2ccc(O)cc2)C(=O)O)CSSC1(C)C [Example 156] (HELM PEPTIDE1{V.[Hyp].I.L.Y.[Pen].N.R.[Dab].T.[NCC[C@@H](N[*:1])C(=O)[*:2]].K.C.[Dab].R.Y}$PEPTIDE1,PEPTIDE1,6:R3-13:R3$$$V2.0)	0.25	0.25	0.5	0
CC[C@H](C)[C@H](NC(=O)[C@@H]1C[C@@H](O)CN1C(=O)[C@@H](N)C(C)C)C(=O)N[C@@H](CC(N)=O)C(=O)N[C@@H](Cc1ccc(O)cc1)C(=O)N[C@@H]1C(=O)N[C@@H](CC(N)=O)C(=O)N[C@@H](CCCNC(=N)N)C(=O)N[C@@H](CCN)C(=O)N[C@@H]([C@@H](C)O)C(=O)N[C@H](CCN)C(=O)N[C@@H](CCCCN)C(=O)N[C@H](C(=O)N[C@@H](CCN)C(=O)N[C@@H](CCCNC(=N)N)C(=O)N[C@@H](Cc2ccc(O)cc2)C(=O)O)CSSC1(C)C [Example 157] (HELM PEPTIDE1{V.[Hyp].I.N.Y.[Pen].N.R.[Dab].T.[NCC[C@@H](N[*:1])C(=O)[*:2]].K.C.[Dab].R.Y}$PEPTIDE1,PEPTIDE1,6:R3-13:R3$$$V2.0)	0.125	0.125	0.5	0
CC[C@H](C)[C@H](NC(=O)[C@@H]1C[C@@H](O)CN1C(=O)[C@@H](N)C(C)C)C(=O)N[C@@H](CCN)C(=O)N[C@@H](Cc1ccc(O)cc1)C(=O)N[C@@H]1C(=O)N[C@@H](CC(N)=O)C(=O)N[C@@H](CCCNC(=N)N)C(=O)N[C@@H](CCN)C(=O)N[C@@H]([C@@H](C)O)C(=O)N[C@H](CCN)C(=O)N[C@@H](CCCCN)C(=O)N[C@H](C(=O)N[C@@H](CCN)C(=O)N[C@@H](CCCNC(=N)N)C(=O)N[C@@H](Cc2ccc(O)cc2)C(=O)O)CSSC1(C)C [Example 158] (HELM PEPTIDE1{V.[Hyp].I.[Dab].Y.[Pen].N.R.[Dab].T.[NCC[C@@H](N[*:1])C(=O)[*:2]].K.C.[Dab].R.Y}$PEPTIDE1,PEPTIDE1,6:R3-13:R3$$$V2.0)	0.125	0.125	0.5	0
CC[C@H](C)[C@H](NC(=O)[C@@H]1C[C@@H](O)CN1C(=O)[C@@H](N)C(C)C)C(=O)N[C@@H](CCCCN)C(=O)N[C@@H](Cc1ccc(O)cc1)C(=O)N[C@@H]1C(=O)N[C@@H](CC(N)=O)C(=O)N[C@@H](CCCNC(=N)N)C(=O)N[C@@H](CCN)C(=O)N[C@@H]([C@@H](C)O)C(=O)N[C@H](CCN)C(=O)N[C@@H](CCCCN)C(=O)N[C@H](C(=O)N[C@@H](CCN)C(=O)N[C@@H](CCCNC(=N)N)C(=O)N[C@@H](Cc2ccc(O)cc2)C(=O)O)CSSC1(C)C [Example 159] (HELM PEPTIDE1{V.[Hyp].I.K.Y.[Pen].N.R.[Dab].T.[NCC[C@@H](N[*:1])C(=O)[*:2]].K.C.[Dab].R.Y}$PEPTIDE1,PEPTIDE1,6:R3-13:R3$$$V2.0)	0.125	0.25	0.5	0
CC[C@H](C)[C@H](NC(=O)[C@@H]1C[C@@H](O)CN1C(=O)[C@@H](N)C(C)C)C(=O)N[C@H](C(=O)N[C@@H](Cc1c[nH]c2ccccc12)C(=O)N[C@@H]1C(=O)N[C@@H](CC(N)=O)C(=O)N[C@@H](CCCNC(=N)N)C(=O)N[C@@H](CCN)C(=O)N[C@@H]([C@@H](C)O)C(=O)N[C@H](CCN)C(=O)N[C@@H](CCCCN)C(=O)N[C@H](C(=O)N[C@@H](CCN)C(=O)N[C@@H](CCCNC(=N)N)C(=O)N[C@@H](Cc2ccc(O)cc2)C(=O)O)CSSC1(C)C)[C@@H](C)O [Example 160] (HELM PEPTIDE1{V.[Hyp].I.T.W.[Pen].N.R.[Dab].T.[NCC[C@@H](N[*:1])C(=O)[*:2]].K.C.[Dab].R.Y}$PEPTIDE1,PEPTIDE1,6:R3-13:R3$$$V2.0)	0.25	0.25	0.5	0
CC[C@H](C)[C@H](NC(=O)[C@@H]1C[C@@H](O)CN1C(=O)[C@@H](N)C(C)C)C(=O)N[C@H](C(=O)N[C@@H](Cc1ccc(O)cc1)C(=O)N[C@@H]1C(=O)N[C@@H](C)C(=O)N[C@@H](CCCNC(=N)N)C(=O)N[C@@H](CCN)C(=O)N[C@@H]([C@@H](C)O)C(=O)N[C@H](CCN)C(=O)N[C@@H](CCCCN)C(=O)N[C@H](C(=O)N[C@@H](CCN)C(=O)N[C@@H](CCCNC(=N)N)C(=O)N[C@@H](Cc2ccc(O)cc2)C(=O)O)CSSC1(C)C)[C@@H](C)O [Example 161] (HELM PEPTIDE1{V.[Hyp].I.T.Y.[Pen].A.R.[Dab].T.[NCC[C@@H](N[*:1])C(=O)[*:2]].K.C.[Dab].R.Y}$PEPTIDE1,PEPTIDE1,6:R3-13:R3$$$V2.0)	0.25	0.125	0.5	0
CC[C@H](C)[C@H](NC(=O)[C@@H]1C[C@@H](O)CN1C(=O)[C@@H](N)C(C)C)C(=O)N[C@H](C(=O)N[C@@H](Cc1ccc(O)cc1)C(=O)N[C@@H]1C(=O)N[C@@H](CC(C)C)C(=O)N[C@@H](CCCNC(=N)N)C(=O)N[C@@H](CCN)C(=O)N[C@@H]([C@@H](C)O)C(=O)N[C@H](CCN)C(=O)N[C@@H](CCCCN)C(=O)N[C@H](C(=O)N[C@@H](CCN)C(=O)N[C@@H](CCCNC(=N)N)C(=O)N[C@@H](Cc2ccc(O)cc2)C(=O)O)CSSC1(C)C)[C@@H](C)O [Example 162] (HELM PEPTIDE1{V.[Hyp].I.T.Y.[Pen].L.R.[Dab].T.[NCC[C@@H](N[*:1])C(=O)[*:2]].K.C.[Dab].R.Y}$PEPTIDE1,PEPTIDE1,6:R3-13:R3$$$V2.0)	0.25	0.125	0.25	0
